Results on 16 molecules are retold here after ChEMBL document CHEMBL2440052, “Quinazolinecarboline alkaloid evodiamine as scaffold for targeting topoisomerase I and sirtuins” (Bioorg Med Chem, 2013).

A short description of experiment [1]: Cytotoxicity against human H460 cells after 72 hrs by MTT assay. The class given is functional, cell-based. The conditions noted are these: NCI-H460, 72 h.
Experiment [2] deals with MCF7. The experiment can be described thus: Cytotoxicity against human MCF7 cells at 15 uM after 72 hrs by MTT assay relative to control. The class given is functional. The conditions noted are these: MCF7, 72 h, values are per cent of control.
Experiment [3] concerns HepG2. Briefly: Cytotoxicity against human HepG2 cells at 15 uM after 72 hrs by MTT assay relative to control. It is filed as functional. The conditions noted are these: HepG2, 72 h, values are per cent of control.
Experiment [4] concerns the target T1, NAD-dependent protein deacetylase sirtuin-1 (Homo sapiens) (UniProt Q96EB6).
T1 sequence (whole entry): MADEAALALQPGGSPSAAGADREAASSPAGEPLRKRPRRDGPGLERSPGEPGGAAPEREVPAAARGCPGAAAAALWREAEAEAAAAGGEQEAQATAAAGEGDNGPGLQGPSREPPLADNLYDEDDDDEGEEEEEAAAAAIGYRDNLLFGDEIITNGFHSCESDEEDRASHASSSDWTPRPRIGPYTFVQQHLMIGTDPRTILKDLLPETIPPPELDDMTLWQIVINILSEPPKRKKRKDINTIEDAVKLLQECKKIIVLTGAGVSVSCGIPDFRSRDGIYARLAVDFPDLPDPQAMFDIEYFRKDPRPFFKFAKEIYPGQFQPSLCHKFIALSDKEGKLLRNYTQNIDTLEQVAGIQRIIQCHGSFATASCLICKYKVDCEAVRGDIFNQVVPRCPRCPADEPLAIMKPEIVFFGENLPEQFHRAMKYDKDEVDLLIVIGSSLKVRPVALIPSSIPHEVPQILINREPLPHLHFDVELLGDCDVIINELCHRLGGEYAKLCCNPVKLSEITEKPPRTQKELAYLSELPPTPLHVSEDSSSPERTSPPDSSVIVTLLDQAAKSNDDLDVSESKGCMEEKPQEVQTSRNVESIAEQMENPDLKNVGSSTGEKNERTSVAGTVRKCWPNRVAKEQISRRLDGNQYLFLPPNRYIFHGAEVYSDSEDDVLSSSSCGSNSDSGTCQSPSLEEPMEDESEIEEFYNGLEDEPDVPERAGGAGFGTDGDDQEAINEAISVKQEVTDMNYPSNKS
The experiment can be described thus: Inhibition of recombinant GST-SIRT1 (unknown origin) using KI177 as substrate at 50 uM after 45 mins by fluorescence assay.

Experiment [5] has as its target T2, NAD-dependent protein deacetylase sirtuin-2 (Homo sapiens) (UniProt Q8IXJ6).
T2 sequence (whole entry): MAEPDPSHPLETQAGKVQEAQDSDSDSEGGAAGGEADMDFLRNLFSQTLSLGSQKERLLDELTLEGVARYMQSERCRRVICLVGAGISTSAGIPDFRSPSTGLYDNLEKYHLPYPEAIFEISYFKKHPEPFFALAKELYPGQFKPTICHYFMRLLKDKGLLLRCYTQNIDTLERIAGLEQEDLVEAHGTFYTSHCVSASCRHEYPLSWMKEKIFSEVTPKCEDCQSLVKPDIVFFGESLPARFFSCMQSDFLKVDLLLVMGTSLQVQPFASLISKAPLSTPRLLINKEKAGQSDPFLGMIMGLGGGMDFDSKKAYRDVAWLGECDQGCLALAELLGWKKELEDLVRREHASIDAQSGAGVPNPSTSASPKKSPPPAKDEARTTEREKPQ
The experiment can be described thus: Inhibition of recombinant GST-SIRT2 (unknown origin) using KI179 as substrate at 200 uM after 45 mins by fluorescence assay.

In experiment [6] the target is T3, NAD-dependent protein deacetylase sirtuin-3, mitochondrial (Homo sapiens) (UniProt Q9NTG7).
T3 sequence (whole entry): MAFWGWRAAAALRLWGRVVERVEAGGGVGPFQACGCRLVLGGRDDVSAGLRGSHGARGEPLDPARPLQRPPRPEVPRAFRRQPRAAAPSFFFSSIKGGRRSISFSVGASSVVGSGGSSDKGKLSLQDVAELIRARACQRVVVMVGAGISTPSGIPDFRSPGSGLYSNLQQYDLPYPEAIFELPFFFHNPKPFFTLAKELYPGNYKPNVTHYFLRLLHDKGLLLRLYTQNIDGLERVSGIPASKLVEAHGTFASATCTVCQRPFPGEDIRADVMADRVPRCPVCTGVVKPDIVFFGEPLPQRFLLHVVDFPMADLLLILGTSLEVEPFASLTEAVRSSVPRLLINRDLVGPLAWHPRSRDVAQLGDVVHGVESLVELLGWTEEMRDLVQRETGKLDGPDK
The experiment can be described thus: Inhibition of recombinant His-SIRT3 (unknown origin) using KI179 as substrate at 200 uM after 45 mins by fluorescence assay.

The target of experiment [7] is T4, DNA topoisomerase 1 (Homo sapiens) (UniProt P11387).
T4 sequence (whole entry): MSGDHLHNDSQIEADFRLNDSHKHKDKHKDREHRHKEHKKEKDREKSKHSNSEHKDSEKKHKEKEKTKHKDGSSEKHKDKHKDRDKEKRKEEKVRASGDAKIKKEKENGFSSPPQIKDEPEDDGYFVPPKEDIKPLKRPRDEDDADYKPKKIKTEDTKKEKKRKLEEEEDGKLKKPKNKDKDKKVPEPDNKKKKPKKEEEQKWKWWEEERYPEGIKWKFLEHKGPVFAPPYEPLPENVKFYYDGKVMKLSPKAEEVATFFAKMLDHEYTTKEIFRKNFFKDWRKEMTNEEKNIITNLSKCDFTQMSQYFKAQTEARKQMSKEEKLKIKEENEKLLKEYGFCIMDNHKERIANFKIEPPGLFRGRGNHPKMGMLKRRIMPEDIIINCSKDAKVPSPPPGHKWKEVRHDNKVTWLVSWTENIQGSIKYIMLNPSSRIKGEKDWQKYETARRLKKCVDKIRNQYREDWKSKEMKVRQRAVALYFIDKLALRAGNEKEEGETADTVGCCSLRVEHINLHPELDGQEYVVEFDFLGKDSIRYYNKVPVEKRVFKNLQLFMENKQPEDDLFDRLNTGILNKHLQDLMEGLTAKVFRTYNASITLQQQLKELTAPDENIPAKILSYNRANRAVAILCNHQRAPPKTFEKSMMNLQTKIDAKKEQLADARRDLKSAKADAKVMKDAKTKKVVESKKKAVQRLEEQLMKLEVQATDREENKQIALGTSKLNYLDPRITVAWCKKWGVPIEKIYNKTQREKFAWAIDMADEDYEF
The experiment can be described thus: Inhibition of human recombinant topoisomerase 1-mediated relaxation of supercoiled pBR322 at 50 to 100 uM after 60 mins by agarose gel electrophoresis.

Experiment [8] concerns the target T2, NAD-dependent protein deacetylase sirtuin-2 (Homo sapiens). Briefly: Inhibition of recombinant GST-SIRT2 (unknown origin) using KI179 as substrate at 168 uM after 45 mins by fluorescence assay.
Experiment [9] addresses T4, DNA topoisomerase 1 (Homo sapiens). Briefly: Inhibition of human recombinant topoisomerase 1-mediated relaxation of supercoiled pBR322 at 500 uM after 60 mins by agarose gel electrophoresis.
In experiment [10] the target is T3, NAD-dependent protein deacetylase sirtuin-3, mitochondrial (Homo sapiens). Briefly: Inhibition of recombinant His-SIRT3 (unknown origin) using KI179 as substrate at 168 uM after 45 mins by fluorescence assay.
For experiment [11], the target named is T4, DNA topoisomerase 1 (Homo sapiens). Briefly: Inhibition of human recombinant topoisomerase 1-mediated DNA cleavage assessed as formation of nicked DNA from supercoiled pBR322 DNA up to 100 uM after 60 mins by agarose gel electrophoresis.

Calls of active or inactive are those of the source. The rule behind the calls is not given here.

`CN1c2ccccc2C(=O)N2[C@@H](C(=O)N3CCCCC3)Cc3c([nH]c4ccccc34)[C@H]12`: the IC50 in [1] was found to be 8.5 µM. The viability, % of control at 15 µM was 63% in experiment [2] and 75% in experiment [3].

Molecule `CN1c2ccccc2C(=O)N2[C@@H](C(=O)O)Cc3c([nH]c4ccccc34)[C@H]12` gave an IC50 in [1] of over 30 µM. In addition, the viability, % of control at 15 µM came to 103% in [2] and 107% in experiment [3].

In turn, `CN1c2ccccc2C(=O)N2[C@H](C(=O)N3CCCCC3)Cc3c([nH]c4ccccc34)[C@@H]12` registered a concentration for half-maximal inhibition (IC50) in experiment [1] of 49 µM. Also, the inhibition in experiment [4] was 6.5%; in experiment [5] it was 46%. In addition, the figures for the viability, % of control at 15 µM in experiment [2] and in [3] were 85% and 110%, respectively.

Consider `CNC(=O)[C@H]1Cc2c([nH]c3ccccc23)[C@@H]2N(C)c3ccccc3C(=O)N12`, for which, in experiment [1], the IC50 is over 30 µM. The viability, % of control at 15 µM was found to be 108% in experiment [2] and 101% in [3].

In turn, `COC(=O)[C@@H]1Cc2c([nH]c3ccccc23)[C@H]2N(C)c3ccccc3C(=O)N12` yielded an IC50 in experiment [1] of 35 µM. In addition, the inhibition in experiment [4] came out at 3.3%; in [6], 21%; in [5], 80%. Also, the viability, % of control at 15 µM in experiment [2] was 90%; in experiment [3] it was 101%.

`CN1c2ccccc2C(=O)N2[C@H](C(=O)N3CCSCC3)Cc3c([nH]c4ccccc34)[C@@H]12` came in with an IC50 in [1] of 86.8 µM. The inhibition in [4] came to 8.2%; in experiment [5], 35%. Besides, the viability, % of control at 15 µM in experiment [2] stood at 103%; in [3], 90%.

`CN1c2ccccc2C(=O)N2[C@@H](C(=O)N3CCSCC3)Cc3c([nH]c4ccccc34)[C@H]12`: the IC50 in experiment [1] is over 100 µM. Moreover, the values for the viability, % of control at 15 µM in experiment [2] and in experiment [3] were 105% and 89%, respectively.

Turning to `CN1CCN(C(=O)[C@H]2Cc3c([nH]c4ccccc34)[C@@H]3N(C)c4ccccc4C(=O)N23)CC1`, the IC50 in experiment [1] amounted to 55 µM. The viability, % of control at 15 µM in [2] stood at 74%; in experiment [3] it was 91%.

`CN1c2ccccc2C(=O)N2CCc3c([nH]c4ccccc34)[C@@H]21` [EVODIAMINE]: in experiment [1], the IC50 is 13.2 µM. Further, the inhibition entry in experiment [7] and in experiment [11] was “inactive” each time. Moreover, the inhibition in [8] amounted to 58%; in experiment [10] it was 21%; in [4], 1.1%. Besides, the inhibition result in [9] is “Active”. Besides, the viability, % of control at 15 µM is 51% in experiment [2] and 76% in experiment [3].

Turning to `COC(=O)[C@H]1Cc2c([nH]c3ccccc23)[C@@H]2N(C)c3ccccc3C(=O)N12`, the half-inhibitory concentration (IC50) in [1] turned out to be 24 µM. Further, the inhibition in [4] came to 7.8%; in experiment [6], 17%; in experiment [5], 78%. For the same molecule, the results for the viability, % of control at 15 µM in experiment [2] and in experiment [3] were 96% and 90%, respectively.

`CN1c2ccccc2C(=O)N2[C@H](C(=O)O)Cc3c([nH]c4ccccc34)[C@@H]12` displayed a 50% inhibitory concentration (IC50) in experiment [1] of 60 µM. For the same molecule, the inhibition in experiment [4] worked out at 26%; in experiment [6], 61%; in experiment [5], 60%. The viability, % of control at 15 µM in experiment [2] is 128%; in [3] it was 107%.

As to `CN1c2ccccc2C(=O)N2[C@@H](C(=O)N3CCOCC3)Cc3c([nH]c4ccccc34)[C@H]12`, in [1], half-maximal inhibition (IC50) was put at 58.3 µM. Moreover, the figures for the viability, % of control at 15 µM in experiment [2] and in experiment [3] were 72% and 94%, respectively.

Turning to `CNC(=O)[C@@H]1Cc2c([nH]c3ccccc23)[C@H]2N(C)c3ccccc3C(=O)N12`, in [1], half-maximal inhibition (IC50) was put at 53 µM. Also, the values for the inhibition in [4], in [6] and in experiment [5] were 6.4%, 26% and 62%, respectively. For the same molecule, the results for the viability, % of control at 15 µM in experiment [2] and in experiment [3] were 94% and 101%, respectively.

Regarding `CN1c2ccccc2C(=O)N2CCc3c([nH]c4ccccc34)[C@H]21`, the IC50 in experiment [1] was 2.6 µM. In addition, the inhibition entry in [7] and in experiment [11] was “inactive” each time. Also, the inhibition in experiment [8] came to 71%; in experiment [10], 20%; in [4] it was 4.2%. Besides, the inhibition result in [9] was “Active”. Further, the viability, % of control at 15 µM came out at 44% in experiment [2] and 69% in experiment [3].

Regarding `CN1c2ccccc2C(=O)N2[C@H](C(=O)N3CCOCC3)Cc3c([nH]c4ccccc34)[C@@H]12`, in experiment [1], the concentration for half-maximal inhibition (IC50) is 73 µM. Besides, the values for the inhibition in experiment [4] and in [5] were 4.1% and 36%, respectively. Further, the viability, % of control at 15 µM came out at 131% in experiment [2] and 88% in [3].

In [1], `CN1CCN(C(=O)[C@@H]2Cc3c([nH]c4ccccc34)[C@H]3N(C)c4ccccc4C(=O)N23)CC1` registered an IC50 of 66 µM. The inhibition came out at 5.3% in [4] and 43% in experiment [5]. Moreover, the viability, % of control at 15 µM in experiment [2] came to 68%; in [3] it was 83%.
